Measured values reported in US20220153732A1, “PROTEIN SECRETION INHIBITORS” (KEZAR LIFE SCIENCES, priority 2019, published 2022).
Like-named read-outs stand apart in the source and are kept apart here.

What was measured:
Type in all cases: cell-based
[1] = tested on: IL-2-FL/Gaussia Luciferase; experiment: Dox Induced IL2-FL-Gluc Assay
How it was run: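 Stable T-REx cell line expressing doxycycline-inducible IL-2-FL/Gaussia luciferase cDNA, plated the day before assay. Compound dilutions in DMSO/media containing doxycycline added and incubated at 37° C., 5% CO2. Unspecified stereochemistry means data refer to a stereoisomer mixture.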

[2] = tested on: PD1-ss+10aa/Gaussia Luciferase; experiment: Dox-Induced PD1-ss-Gluc Assay
How it was run: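 Stable cell line carrying PD1-ss+10aa/Gaussia luciferase cDNA under T-REx (doxycycline-inducible) control, plated the day before assay. Compound dilutions in DMSO/media containing doxycycline added and incubated at 37° C, 5% CO2. Undefined stereocentres: data refer to stereoisomer mixtures.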

[3] = tested on: TNFα-FL/Gaussia Luciferase; experiment: Dox Induced TNFα-FL-Gluc Assay
How it was run: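 A stable T-REx cell line carrying doxycycline-inducible TNFα-FL/Gaussia luciferase was plated the day before assay. Compound dilutions in DMSO/media containing doxycycline were then added and incubated at 37° C, 5% CO2.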

[4] = tested on: human multiple myeloma cell line NCI-H929; experiment: H929 Cell Viability Assay; conditions: 48 hr, NCI-H929 cells, Celltiter-Glo, read-out: 48 hr H929 Viability Celltiter-Glo: Mean EC50
Procedure: Plates were incubated at 37° C., 5% CO2 for 48 hours. After 48 hours, Celltiter-Glo® (Promega) was added to each well and luciferase signal was quantified using Tecan Infinite M1000 Pro for cell viability determination.
For chemical structures that include one or more stereoisomers, but are illustrated without indicating stereochemistry, the assay data refers to a mixture of stereoisomers.

[5] = tested on: HER3-ss+4aa/Gaussia Luciferase; experiment: Dox-Induced Her3-ss-Gluc Assay
How it was run: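 Stable T-REx cell line carrying a doxycycline-regulated HER3-ss+4aa/Gaussia luciferase insert, plated the day before assay. Compound dilutions in DMSO/media with doxycycline added, then incubated at 37° C., 5% CO2. Stereoisomer mixtures tested where stereochemistry is not drawn.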

[6] = tested on: human multiple myeloma cell line U266B1; experiment: U266 Cell Viability Assay; conditions: U-266, 48 hr, U266B1 cells, Celltiter-Glo, read-out: 48 hr U266 Viability Celltiter-Glo: Mean EC50
How it was run: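 U266B1 myeloma cells treated with compound dilutions in DMSO/media for 48 h at 37 °C, 5% CO2. Viability read by CellTiter-Glo luminescence. Stereochemically undefined structures were tested as stereoisomer mixtures.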

[7] = 24 hr, doxycycline-induced, 293FRT/TO cells; read-out: 24 hr Dox Inducible IL2FLGIuc 293FRT/TO: Mean IC50
[8] = 24 hr, doxycycline-induced, 293FRT/TO cells; read-out: 24 hr Dox Inducible PD1ssGluc 293FRT/TO: Mean IC50
[9] = 24 hr, doxycycline-induced, 293FRT/TO cells; read-out: 24 hr Dox Inducible TNFaFLGluc 293FRT/TO: Mean IC50
[10] = 24 hr, doxycycline-induced, 293FRT/TO cells; read-out: 24 hr Dox Inducible Her3(ss + 4)Gluc 293FRT/TO: Mean IC50
[11] = 24 hr doxycycline induction, 293FRT/TO cells, Gaussia luciferase signal; read-out: 24 hr Dox Inducible IL2FLGIuc 293FRT/TO: Mean IC50
[12] = 24 hr doxycycline induction, 293FRT/TO cells, Gaussia luciferase signal; read-out: 24 hr Dox Inducible PD1ssGluc 293FRT/TO: Mean IC50
[13] = 24 hr doxycycline induction, 293FRT/TO cells, Gaussia luciferase signal; read-out: 24 hr Dox Inducible TNFaFLGluc 293FRT/TO: Mean IC50
[14] = 24 hr doxycycline induction, 293FRT/TO cells, Gaussia luciferase signal; read-out: 24 hr Dox Inducible Her3(ss + 4)Gluc 293FRT/TO: Mean IC50

SMILES	IC50 [1, 7] [µM]	IC50 [2, 8] [µM]	IC50 [3, 9] [µM]	EC50 [4] [µM]	IC50 [5, 10] [µM]	EC50 [6] [µM]	IC50 [1, 11] [µM]	IC50 [2, 12] [µM]	IC50 [3, 13] [µM]	IC50 [5, 14] [µM]	IC50 ([1]; read-out: 24 hr Dox Inducible IL2FLGIuc 293FRT/TO: Mean IC50; 24 hr, doxycycline-induced, 293FRT/TO cells) [µM]	IC50 ([2]; read-out: 24 hr Dox Inducible PD1ssGluc 293FRT/TO: Mean IC50; 24 hr, doxycycline-induced, 293FRT/TO cells) [µM]	IC50 ([3]; read-out: 24 hr Dox Inducible TNFaFLGluc 293FRT/TO: Mean IC50; 24 hr, doxycycline-induced, 293FRT/TO cells) [µM]	IC50 ([5]; read-out: 24 hr Dox Inducible Her3(ss + 4)Gluc 293FRT/TO: Mean IC50; 24 hr, doxycycline-induced, 293FRT/TO cells) [µM]
O=C(Nc1nccs1)c1cccn1Cc1ccncc1 [Compound B6]	> 25	6.66	> 25	> 25	> 25	> 25	–	–	–	–	–	–	–	–
O=C(Nc1nc([C@@H]2CCCN2c2ccccc2)cs1)c1cccn1Cc1ccncc1Cl [Compound A318]	0.184	0.049	0.817	6.04	0.097	> 25	–	–	–	–	–	–	–	–
CC(C)(OCc1ccccc1)c1csc(NC(=O)c2cccn2Cc2ccncc2)n1 [Compound A9, N-(4-(2-(benzyloxy)propan-2-yl)thiazol-2-yl)-1-(pyridin-4-ylmethyl)-1H-pyrrole-2-carboxamide]	–	–	–	9.46	–	> 25	0.197	0.104	1.62	0.202	–	–	–	–
O=C(Nc1nc([C@H]2CCC[C@H]2c2ccccc2)cs1)c1cccn1Cc1ccncc1 [Compound A301, N-(4-((1S,2R)-2-phenylcyclopentyl)thiazol-2-yl)-1-(pyridin-4-ylmethyl)-1H-pyrrole-2-carboxamide]	0.064	0.043	0.242	2.77	0.054	> 25	–	–	–	–	–	–	–	–
O=C(Nc1nc(/C=C/c2ccc3ncccc3c2)cs1)c1cccn1Cc1ccncc1 [Compound A237]	–	–	–	18.7	–	> 25	1.87	0.288	> 25	1.12	–	–	–	–
O=C(Nc1nc(C2=CC(c3ccccc3)CCC2)cs1)c1cccn1Cc1ccncc1 (stereo not drawn) [Compound A294]	0.939	0.499	4.44	> 25	1.05	> 25	–	–	–	–	–	–	–	–
CCc1cc(NC(=O)c2cccn2Cc2ccncc2)ccc1C [Compound B10, N-(3-ethyl-4-methylphenyl)-1-(pyridin-4-ylmethyl)-1H-pyrrole-2-carboxamide]	> 25	11.9	> 25	> 25	> 25	> 25	–	–	–	–	–	–	–	–
COc1cc(Cn2cccc2C(=O)Nc2nc(C(C)(C)OC(C)C)cs2)ccn1 [Compound A125, N-(4-(2-isopropoxypropan-2-yl)thiazol-2-yl)-1-((2-methoxypyridin-4-yl)methyl)-1H-pyrrole-2-carboxamide]	–	–	–	> 25	–	> 25	> 25	> 25	> 25	> 25	–	–	–	–
O=C(Nc1nc(C2CCC(c3ccccc3)O2)cs1)c1cccn1Cc1ccncc1 (stereo not drawn) [Compound A310, N-(4-(5-phenyltetrahydrofuran-2-yl)thiazol-2-yl)-1-(pyridin-4-ylmethyl)-1H-pyrrole-2-carboxamide]	–	–	–	> 25	–	> 25	–	–	–	–	6.99	2.12	24.6	5.44
O=C(Nc1ncc([N+](=O)[O-])s1)c1cccn1Cc1ccncc1 [Compound B17]	> 25	> 25	> 25	> 25	> 25	> 25	–	–	–	–	–	–	–	–
O=C(Nc1nc([C@@H]2CCN(c3ccccc3)C2)cs1)c1cccn1Cc1ccncc1 [Compound A289]	–	–	–	22	–	> 25	0.856	0.201	3.61	0.512	–	–	–	–
CCc1csc(NC(=O)c2cccn2Cc2ccncc2)n1 [Compound A35, N-(4-ethylthiazol-2-yl)-1-(pyridin-4-ylmethyl)-1H-pyrrole-2-carboxamide]	–	–	–	> 25	–	> 25	2.3	0.692	> 25	1.94	–	–	–	–
CCOC(C)(C)c1csc(NC(=O)c2cccn2Cc2ccncc2)n1 [Compound A27, N-(4-(2-ethoxypropan-2-yl)thiazol-2-yl)-1-(pyridin-4-ylmethyl)-1H-pyrrole-2-carboxamide]	–	–	–	> 25	–	> 25	0.32	0.445	9.53	0.822	–	–	–	–
